From patent US20070128217A1 (priority 2003, published 2007)

Key:
[1] = test system: rabbit serum obtained by immunizing a rabbit with the SARS-CoV strain Frankfurt 1; format: binding; parameters: Binding of a rabbit serum to linear peptides / Binding of a rabbit serum to looped peptides / Rabbit serum linear peptides / Rabbit serum looped peptides / Binding of a rabbit serum to linear peptides of protein N of SARS-CoV Urbani (Rabbit serum linear peptides) / Binding of a rabbit serum to looped/cyclic peptides of protein N of SARS-CoV Urbani (Rabbit serum looped peptides): unit not given here
[2] = test system: antibodies in sera from SARS patients (sera 1a, 1b, 2, 6, 37, 62, London, SARS-yellow, SARS-green); format: binding, human; parameters: Binding of serum 6 to linear peptides of protein X1 of SARS-CoV Urbani / Binding of serum 37 to linear peptides of protein X1 of SARS-CoV Urbani / Binding of serum 6 to looped/cyclic peptide (PEPSCAN-ELISA) / Binding of serum 37 to looped/cyclic peptide (PEPSCAN-ELISA) / Binding of serum 37 to looped/cyclic peptides of protein X1 of SARS-CoV Urbani / Binding of serum 6 to linear peptides of protein X2 / Binding of serum 37 to linear peptides of protein X2 / Binding of serum 37 to looped/cyclic peptides of protein X2 of SARS-CoV Urbani / Binding of serum 6 to linear peptides of protein M of SARS-CoV Urbani / Binding of serum 37 to linear peptides of protein M of SARS-CoV Urbani / Binding of serum 6 to looped/cyclic peptides of protein M of SARS-CoV Urbani / Binding of serum 37 to looped/cyclic peptides of protein M of SARS-CoV Urbani / Binding of serum 6 to linear peptides of protein X3 of SARS-CoV Urbani / Binding of serum 37 to linear peptides of protein X3 of SARS-CoV Urbani / Binding of serum 37 to looped/cyclic peptides of protein X3 of SARS-CoV Urbani / Binding of serum 6 to linear peptides of protein X4 of SARS-CoV Urbani / Binding of serum 37 to linear peptides of protein X4 of SARS-CoV Urbani / Binding of serum 37 to looped/cyclic peptides of protein X4 of SARS-CoV Urbani / Binding of serum 6 to linear peptides of protein X5 of SARS-CoV Urbani / Binding of serum 37 to linear peptides of protein X5 of SARS-CoV Urbani / Binding of serum 37 to looped/cyclic peptides of protein X5 of SARS-CoV Urbani / Binding of serum 6 to linear peptides of protein N of SARS-CoV Urbani / Binding of serum 37 to linear peptides of protein N of SARS-CoV Urbani / Binding of serum 6 to linear peptide (PEPSCAN-ELISA) / Binding of serum 1a to looped/cyclic peptides of protein N of SARS-CoV Urbani / Binding of serum 1b to looped/cyclic peptides of protein N of SARS-CoV Urbani / Binding of serum 2 to looped/cyclic peptides of protein N of SARS-CoV Urbani / Binding of serum 6 to looped/cyclic peptides of protein N of SARS-CoV Urbani / Binding of serum 37 to looped/cyclic peptides of protein N of SARS-CoV Urbani / Binding of serum 62 to looped/cyclic peptides of protein N of SARS-CoV Urbani / Binding of serum London to looped/cyclic peptides of protein N of SARS-CoV Urbani / Binding of serum SARS-green to looped/cyclic peptides of protein N of SARS-CoV Urbani: unit not given here
[3] = test system: control sera (pooled serum of ten healthy LUMC hospital workers; commercial negative donor pooled serum from the Dutch bloodbank); format: binding, human; parameters: Binding of Control serum LUMC to linear peptides / Binding of Control serum Blood-bank to linear peptides / Binding of Control serum LUMC to looped peptides / Binding of Control Serum Blood-Bank to Looped peptides / Binding of Control serum LUMC to linear peptides of the protein M of SARS-CoV Urbani / Binding of Control serum Blood-bank to linear peptides of the protein M of SARS-CoV Urbani / Binding of Control serum LUMC to looped peptides of the protein M of SARS-CoV Urbani / Binding of Control Serum Blood-Bank to Looped peptides of the protein M of SARS-CoV Urbani: unit not given here

CNLLLLFVTIYSHLL
0.2: Binding of serum London to linear peptides of protein X1 of SARS-CoV Urbani [2] | Binding of serum London to looped/cyclic peptide (PEPSCAN-ELISA) [2] | Binding of serum SARS-green to looped/cyclic peptide (PEPSCAN-ELISA) [2]
0.7: Binding of serum 1a to linear peptides of protein X1 of SARS-CoV Urbani [2]
0.5: Binding of serum 1a to looped/cyclic peptide (PEPSCAN-ELISA) [2] | Binding of serum 1b to linear peptides of protein X1 of SARS-CoV Urbani [2] | Binding of serum 2 to linear peptides of protein X1 of SARS-CoV Urbani [2] | Binding of serum 37 to looped/cyclic peptide (PEPSCAN-ELISA) [2] | Binding of serum 62 to looped/cyclic peptide (PEPSCAN-ELISA) [2] | Binding of Control Serum Blood-Bank to Looped peptides [3] | Binding of Control serum LUMC to looped peptides [3]
0.3: Binding of serum 6 to looped/cyclic peptide (PEPSCAN-ELISA) [2]
0.6: Binding of a rabbit serum to looped peptides [1] | Binding of serum 37 to linear peptides of protein X1 of SARS-CoV Urbani [2]
0.4: Binding of serum 1b to looped/cyclic peptide (PEPSCAN-ELISA) [2] | Binding of serum 2 to looped/cyclic peptide (PEPSCAN-ELISA) [2] | Binding of serum 6 to linear peptides of protein X1 of SARS-CoV Urbani [2] | Binding of serum 62 to linear peptides of protein X1 of SARS-CoV Urbani [2] | Binding of serum SARS-yellow to linear peptides of protein X1 of SARS-CoV Urbani [2] | Binding of serum SARS-yellow to looped/cyclic peptide (PEPSCAN-ELISA) [2] | Binding of Control serum Blood-bank to linear peptides [3] | Binding of Control serum LUMC to linear peptides [3]
0.1: Binding of a rabbit serum to linear peptides [1] | Binding of serum SARS-green to linear peptides of protein X1 of SARS-CoV Urbani [2]

LWLLWPVTLACFVLA
0.6: Binding of serum 1b to linear peptides of protein M of SARS-CoV Urbani [2] | Binding of serum 2 to looped/cyclic peptides of protein M of SARS-CoV Urbani [2] | Binding of serum 62 to looped/cyclic peptides of protein M of SARS-CoV Urbani [2] | Binding of serum SARS-yellow to looped/cyclic peptides of protein M of SARS-CoV Urbani [2] | Binding of Control serum LUMC to looped peptides of the protein M of SARS-CoV Urbani [3]
0.5: Binding of serum 6 to linear peptides of protein M of SARS-CoV Urbani [2] | Binding of serum 6 to looped/cyclic peptides of protein M of SARS-CoV Urbani [2] | Binding of Control Serum Blood-Bank to Looped peptides of the protein M of SARS-CoV Urbani [3] | Binding of Control serum Blood-bank to linear peptides of the protein M of SARS-CoV Urbani [3] | Binding of Control serum LUMC to linear peptides of the protein M of SARS-CoV Urbani [3]
0.7: Binding of serum 1a to linear peptides of protein M of SARS-CoV Urbani [2] | Binding of serum 1a to looped/cyclic peptides of protein M of SARS-CoV Urbani [2] | Binding of serum 37 to looped/cyclic peptides of protein M of SARS-CoV Urbani [2]
0.4: Rabbit serum looped peptides [1] | Binding of serum 1b to looped/cyclic peptides of protein M of SARS-CoV Urbani [2] | Binding of serum 2 to linear peptides of protein M of SARS-CoV Urbani [2] | Binding of serum 37 to linear peptides of protein M of SARS-CoV Urbani [2] | Binding of serum 62 to linear peptides of protein M of SARS-CoV Urbani [2] | Binding of serum London to linear peptides of protein M of SARS-CoV Urbani [2] | Binding of serum SARS-green to linear peptides of protein M of SARS-CoV Urbani [2]
0.2: Binding of serum London to looped/cyclic peptides of protein M of SARS-CoV Urbani [2] | Binding of serum SARS-green to looped/cyclic peptides of protein M of SARS-CoV Urbani [2] | Binding of serum SARS-yellow to linear peptides of protein M of SARS-CoV Urbani [2]
0.1: Rabbit serum linear peptides [1]

TIAEILIIIMRTFRI
0.3: Binding of serum 1b to linear peptides of protein X3 of SARS-CoV Urbani [2] | Binding of serum 37 to looped/cyclic peptides of protein X3 of SARS-CoV Urbani [2] | Binding of serum SARS-green to linear peptides of protein X3 of SARS-CoV Urbani [2] | Binding of serum SARS-yellow to linear peptides of protein X3 of SARS-CoV Urbani [2]
0.8: Binding of serum 1a to linear peptides of protein X3 of SARS-CoV Urbani [2] | Binding of Control serum Blood-bank to linear peptides of the protein X3 of SARS-CoV Urbani [3]
0.7: Binding of serum 1a to looped/cyclic peptides of protein X3 of SARS-CoV Urbani [2] | Binding of serum 2 to linear peptides of protein X3 of SARS-CoV Urbani [2] | Binding of serum 6 to linear peptides of protein X3 of SARS-CoV Urbani [2] | Binding of serum 62 to linear peptides of protein X3 of SARS-CoV Urbani [2] | Binding of serum London to linear peptides of protein X3 of SARS-CoV Urbani [2] | Binding of Control serum LUMC to looped peptides of the protein X3 of SARS-CoV Urbani [3]
0.6: Binding of serum 2 to looped/cyclic peptides of protein X3 of SARS-CoV Urbani [2] | Binding of serum 37 to linear peptides of protein X3 of SARS-CoV Urbani [2] | Binding of Control serum LUMC to linear peptides of the protein X3 of SARS-CoV Urbani [3]
1.1: Binding of Control Serum Blood-Bank to Looped peptides of the protein X3 of SARS-CoV Urbani [3]
0.5: Binding of serum SARS-yellow to looped/cyclic peptides of protein X3 of SARS-CoV Urbani [2]
0.0: Rabbit serum looped peptides [1]
0.4: Binding of serum 1b to looped/cyclic peptides of protein X3 of SARS-CoV Urbani [2] | Binding of serum 6 to looped/cyclic peptides of protein X3 of SARS-CoV Urbani [2] | Binding of serum 62 to looped/cyclic peptides of protein X3 of SARS-CoV Urbani [2] | Binding of serum SARS-green to looped/cyclic peptides of protein X3 of SARS-CoV Urbani [2]
0.2: Rabbit serum linear peptides [1] | Binding of serum London to looped/cyclic peptides of protein X3 of SARS-CoV Urbani [2]

KTHRMCKYTQSTALQ
0.7: Binding of serum 1a to linear peptides of protein X2 [2] | Binding of serum 37 to linear peptides of protein X2 [2]
0.3: Binding of a rabbit serum to linear peptides [1] | Binding of a rabbit serum to looped peptides [1]
0.8: Binding of serum SARS-yellow to linear peptides of protein X2 [2]
0.4: Binding of serum 1a to looped/cyclic peptides of protein X2 of SARS-CoV Urbani [2] | Binding of serum 1b to looped/cyclic peptides of protein X2 of SARS-CoV Urbani [2] | Binding of serum 6 to looped/cyclic peptides of protein X2 of SARS-CoV Urbani [2] | Binding of serum 62 to looped/cyclic peptides of protein X2 of SARS-CoV Urbani [2] | Binding of Control serum LUMC to looped peptides [3]
0.5: Binding of serum 1b to linear peptides of protein X2 [2] | Binding of serum 6 to linear peptides of protein X2 [2] | Binding of serum London to linear peptides of protein X2 [2] | Binding of serum SARS-green to linear peptides of protein X2 [2] | Binding of Control Serum Blood-Bank to Looped peptides [3] | Binding of Control serum LUMC to linear peptides [3]
0.2: Binding of serum 2 to looped/cyclic peptides of protein X2 of SARS-CoV Urbani [2] | Binding of serum 37 to looped/cyclic peptides of protein X2 of SARS-CoV Urbani [2] | Binding of serum London to looped/cyclic peptides of protein X2 of SARS-CoV Urbani [2] | Binding of serum SARS-green to looped/cyclic peptides of protein X2 of SARS-CoV Urbani [2] | Binding of serum SARS-yellow to looped/cyclic peptides of protein X2 of SARS-CoV Urbani [2]
0.6: Binding of serum 2 to linear peptides of protein X2 [2] | Binding of serum 62 to linear peptides of protein X2 [2] | Binding of Control serum Blood-bank to linear peptides [3]

PLMESELVIGAVIIR
1.0: Binding of Control serum Blood-bank to linear peptides of the protein M of SARS-CoV Urbani [3]
0.2: Rabbit serum linear peptides [1] | Binding of serum London to looped/cyclic peptides of protein M of SARS-CoV Urbani [2] | Binding of serum SARS-yellow to linear peptides of protein M of SARS-CoV Urbani [2]
0.6: Binding of serum 1b to linear peptides of protein M of SARS-CoV Urbani [2] | Binding of serum 1b to looped/cyclic peptides of protein M of SARS-CoV Urbani [2]
0.3: Binding of serum London to linear peptides of protein M of SARS-CoV Urbani [2] | Binding of serum SARS-green to looped/cyclic peptides of protein M of SARS-CoV Urbani [2]
0.7: Binding of serum 1a to linear peptides of protein M of SARS-CoV Urbani [2] | Binding of serum 1a to looped/cyclic peptides of protein M of SARS-CoV Urbani [2] | Binding of serum 2 to linear peptides of protein M of SARS-CoV Urbani [2] | Binding of serum 2 to looped/cyclic peptides of protein M of SARS-CoV Urbani [2] | Binding of serum 37 to linear peptides of protein M of SARS-CoV Urbani [2] | Binding of serum SARS-yellow to looped/cyclic peptides of protein M of SARS-CoV Urbani [2]
0.5: Binding of serum 62 to linear peptides of protein M of SARS-CoV Urbani [2] | Binding of serum SARS-green to linear peptides of protein M of SARS-CoV Urbani [2]
0.1: Rabbit serum looped peptides [1]
0.4: Binding of serum 6 to linear peptides of protein M of SARS-CoV Urbani [2]
0.8: Binding of serum 6 to looped/cyclic peptides of protein M of SARS-CoV Urbani [2] | Binding of serum 37 to looped/cyclic peptides of protein M of SARS-CoV Urbani [2] | Binding of serum 62 to looped/cyclic peptides of protein M of SARS-CoV Urbani [2] | Binding of Control serum LUMC to linear peptides of the protein M of SARS-CoV Urbani [3] | Binding of Control serum LUMC to looped peptides of the protein M of SARS-CoV Urbani [3]
0.9: Binding of Control Serum Blood-Bank to Looped peptides of the protein M of SARS-CoV Urbani [3]
